{
  "source": "patent US20020002269A1",
  "about": "“ARTEMIN, A NEUROTROPHIC FACTOR” (priority 1998, published 2002)",
  "key": {"[1]": {"test_system": "SH-SY5Y neuroblastoma cell line", "assay": "Differentiation of SH-SY5Y neuroblastoma cells", "format": "cell-based", "settings": "50 ng/ml, three days after factor addition, FIG. 8C", "protocol": "In one experiment, cells from the SH-SY5Y neuroblastoma cell line were plated at 2×10^5 cells/ml/well in 12-well tissue culture plates. After one day in culture cells were either left untreated (Cn) or stimulated with 50 ng/ml artemin (ART) or 10 μM retinoic acid (RA), a known inducer of differentiation of SH-SYSY cells. Three days after factor addition, differentiation was assessed and cells were photographed."}, "[2]": {"test_system": "dopaminergic neurons from the rat embryonic ventral midbrain", "assay": "Survival of TH+ dopaminergic ventral midbrain neurons", "format": "cell-based", "settings": "E14 rat, 50 ng/ml, 3 days in culture, FIG. 7F", "protocol": "Embryonic day 14 ventral mesencephalon cultures were prepared by removing the entire mesencephalon into cold Leibovitz's L15+6 mg/ml glucose and dissecting the tissue while keeping it on ice. Following dissection, the tissue was digested in a mixture of dispase (1 mg/ml, Sigma) and collagenase (1 mg/ml, Worthington Biochemical) for 25 min. Tissue was then washed twice with modified N2 media and triturated 35 times. Cell density and viability was assessed using a hemocytometer to count trypan blue excluding cells. Cells were plated at 20,000 cells/well on 8-well chamber slides (coated with 125 ng/ml poly-D-lysine and 25 ng/ml laminin) in serum-free medium consisting of DME/Hams F12 (1:1), 1 mg/ml BSA, 5 μM insulin, 10 nM progesterone, 100 μM putrescine, 30 nM selenium, 10 ng/ml rat transferrin, 100 U/ml penicillin, 100 U/ml streptomycin. Factors were added within 15 min of plating. After 3 days in culture, the cells were fixed, stained for tyrosine hydroxylase, and the number of tyrosine hydroxylase staining (TH+) neurons were counted. The results from two independent experiments are shown in FIG. 7F as the percentage of surviving TH+ neurons over control."}, "GFRα3-Fc": {"molecular_target": "T1, GFRα3-Fc (Homo sapiens, UniProt O60609)", "T1 construct": "purchased R&D Systems", "T1 sequence (O60609 with tags, fused parts or gaps limits assumed)": "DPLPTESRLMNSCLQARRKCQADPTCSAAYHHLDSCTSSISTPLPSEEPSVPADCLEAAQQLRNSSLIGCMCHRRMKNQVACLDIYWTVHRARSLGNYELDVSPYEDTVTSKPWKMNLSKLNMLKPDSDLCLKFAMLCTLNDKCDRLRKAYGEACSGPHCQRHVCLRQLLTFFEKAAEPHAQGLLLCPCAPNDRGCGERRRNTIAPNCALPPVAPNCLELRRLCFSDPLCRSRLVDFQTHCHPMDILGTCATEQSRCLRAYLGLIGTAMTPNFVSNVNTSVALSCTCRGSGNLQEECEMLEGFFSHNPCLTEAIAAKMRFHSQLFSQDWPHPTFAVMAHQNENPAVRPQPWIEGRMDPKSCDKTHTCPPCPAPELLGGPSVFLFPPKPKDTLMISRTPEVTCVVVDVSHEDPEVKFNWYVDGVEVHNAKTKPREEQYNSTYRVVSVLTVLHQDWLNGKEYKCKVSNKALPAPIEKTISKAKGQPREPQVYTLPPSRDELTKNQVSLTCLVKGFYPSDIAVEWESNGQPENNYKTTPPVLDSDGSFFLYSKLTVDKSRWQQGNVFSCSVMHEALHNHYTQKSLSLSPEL", "assay": "Direct binding of soluble GFRα3-Fc receptor body to plate-coated ligand", "settings": "ligand coated at 325 ng/ml, absence of RET, FIG. 9E", "protocol": "To investigate which if any of the known coreceptor(s) artemin can utilize to activate RET, its ability to directly bind to soluble Fc-fusion forms of GFRα1, GFRα2, or GFRα3 was assessed. GFRα1-Fc, GFRα2-Fc and GFRα3-Fc fusion proteins were obtained from R&D Systems. Binding assays were performed similarly to assays previously described (Sanicola et al., Proc. Natl. Acad. Sci., USA 94:6238-6243, 1997). Recombinant GDNF, neurturin, artemin, persephin, or purified bovine serum albumin (BSA; Pierce) were coated to Nunc-Immuno MaxiSorp microtiter plates at 325 ng/ml in TBS (10 mM Tris-HCl pH 7.5, 150 mM NaCl) for 1 hour at 25° C. Plates were washed (3× in TBS/0.03% Tween-20), and then blocked (blocking solution: TBS/1% BSA) for 1 hr at 25° C. Receptor bodies diluted in blocking solution were added and incubated for 2 hr at 25° C., washed 5X, then incubated with 1:10,000 dilution of HRP-conjugated anti-human Fc antibodies in blocking solution (Jackson Immunoresearch) for 45 minutes at 25° C. […] The reaction was stopped by adding an equal volume of 0.5M H2SO4, and color was measured in a plate reader at 450 nm. Non-specific binding of receptor bodies to the plates was measured in BSA coated wells, and this binding was subtracted from all other measurements."}},
  "data": [
    {"substance": "artemin: recombinant mature human artemin (FIG. 3A, SEQ ID NO:3) with 8-histidine tag, produced in E. coli; GDNF family neurotrophic factor", "values": [
      {"measurement": "differentiation (neurite outgrowth, neuronal morphology) of SH-SY5Y cells", "setting": "[1]", "result": "induced strong differentiation responses"},
      {"measurement": "survival of TH+ dopaminergic midbrain neurons", "setting": "[2]", "result": "supported the survival of dopaminergic midbrain neurons"},
      {"measurement": "direct binding of GFRα3-Fc", "setting": "GFRα3-Fc", "result": "able to bind to artemin"}
    ]}
  ]
}
